Laboratory results published in PubChem BioAssay AID248 (DTP/NCI, 2004).
“And” between values parts separate entries of the source, which are not always exact repeats. Equal values may be shown once. Inconclusive results and toxic doses are left out.

Tested on: L1210 leukemia ip in BDF1 mice, survival T/C
Assay: NCI In Vivo Anticancer Drug Screen. Data for tumor model L1210 Leukemia (intraperitoneal) in B6D2F1 (BDF1) mice
Settings: endpoint: mean survival time, higher = longer survival
Method in brief: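 Tumor cells were implanted, animals were treated, and survival was followed. The result divides the treated measurement by the vehicle-control measurement.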

[1] = dose: 12.5 mg/kg/injection, schedule: Q01DX009 (ip), vehicle: Klucel (hydroxypropylcellulose) (HPC)
[2] = dose: 25.0 mg/kg/injection, schedule: Q01DX009 (ip), vehicle: Klucel (hydroxypropylcellulose) (HPC)
[3] = dose: 100.0 mg/kg/injection, schedule: Q04DX003 (ip), vehicle: saline
[4] = dose: 200.0 mg/kg/injection, schedule: Q04DX003 (ip), vehicle: saline
[5] = dose: 400.0 mg/kg/injection, schedule: Q04DX003 (ip), vehicle: saline
[6] = dose: 100.0 mg/kg/injection, schedule: Q04DX003 (ip), vehicle: saline with Tween-80
[7] = dose: 200.0 mg/kg/injection, schedule: Q04DX003 (ip), vehicle: saline with Tween-80
[8] = dose: 400.0 mg/kg/injection, schedule: Q04DX003 (ip), vehicle: saline with Tween-80
[9] = dose: 100.0 mg/kg/injection, schedule: Q01DX009 (ip), vehicle: saline with Tween-80
[10] = dose: 200.0 mg/kg/injection, schedule: Q01DX009 (ip), vehicle: saline with Tween-80
[11] = dose: 400.0 mg/kg/injection, schedule: Q01DX009 (ip), vehicle: saline with Tween-80
[12] = dose: 100.0 mg/kg/injection, schedule: Q01DX001 (ip), vehicle: saline
[13] = dose: 200.0 mg/kg/injection, schedule: Q01DX001 (ip), vehicle: saline
[14] = dose: 400.0 mg/kg/injection, schedule: Q01DX001 (ip), vehicle: saline
[15] = dose: 100.0 mg/kg/injection, schedule: Q01DX009 (ip), vehicle: Klucel (hydroxypropylcellulose) (HPC)
[16] = dose: 100.0 mg/kg/injection, schedule: Q01DX001 (ip), vehicle: saline with Tween-80
[17] = dose: 100.0 mg/kg/injection, schedule: Q01DX009 (ip), vehicle: saline
[18] = dose: 200.0 mg/kg/injection, schedule: Q01DX009 (ip), vehicle: saline
[19] = dose: 400.0 mg/kg/injection, schedule: Q01DX009 (ip), vehicle: saline

O=C(CBr)Nc1ccc(Cl)cc1
T/C (dose: 2.0 mg/kg/injection, schedule: Q04DX003 (ip), vehicle: Klucel (hydroxypropylcellulose) (HPC)): 96 % of control
T/C (dose: 3.12 mg/kg/injection, schedule: Q01DX009 (ip), vehicle: Klucel (hydroxypropylcellulose) (HPC)): 92 % of control
T/C (dose: 4.0 mg/kg/injection, schedule: Q04DX003 (ip), vehicle: Klucel (hydroxypropylcellulose) (HPC)): 104 % of control
T/C (dose: 6.25 mg/kg/injection, schedule: Q01DX009 (ip), vehicle: Klucel (hydroxypropylcellulose) (HPC)): 102 % of control
T/C (dose: 9.0 mg/kg/injection, schedule: Q04DX003 (ip), vehicle: Klucel (hydroxypropylcellulose) (HPC)): 100 % of control
T/C [1]: 89 % of control
T/C (dose: 19.0 mg/kg/injection, schedule: Q04DX003 (ip), vehicle: Klucel (hydroxypropylcellulose) (HPC)): 104 % of control and 91 % of control
T/C [2]: 89 % of control
T/C (dose: 50.0 mg/kg/injection, schedule: Q01DX001 (ip), vehicle: other): 95 % of control
T/C (dose: 100.0 mg/kg/injection, schedule: Q01DX001 (ip), vehicle: other): 101 % of control

C=C(C)C1(CCC)C(=O)NC(=S)NC1=O
T/C (dose: 75.0 mg/kg/injection, schedule: Q01DX001 (ip), vehicle: saline): 107 % of control
T/C (dose: 150.0 mg/kg/injection, schedule: Q01DX001 (ip), vehicle: saline): 111 % of control
T/C (dose: 300.0 mg/kg/injection, schedule: Q01DX001 (ip), vehicle: saline): 116 % of control

O=c1ccn(CCC(CO)CO)c(=O)[nH]1
T/C [3]: 101 % of control
T/C [4]: 106 % of control
T/C [5]: 102 % of control

CCC(CCC(C)C1CCC2C3CC=C4CC(O)CCC4(C)C3CCC12C)C(C)C (centres undefined) (tested in a mixture with another compound)
T/C (dose: 12.5 mg/kg/injection, schedule: Q#A X030 (ip), vehicle: water): 103 % of control
T/C (dose: 25.0 mg/kg/injection, schedule: Q01DX009 (ip), vehicle: saline with Tween-80): 93 % of control
T/C (dose: 25.0 mg/kg/injection, schedule: Q#A X030 (ip), vehicle: water): 101 % of control
T/C (dose: 50.0 mg/kg/injection, schedule: Q01DX009 (ip), vehicle: saline with Tween-80): 89 % of control
T/C (dose: 50.0 mg/kg/injection, schedule: Q#A X030 (ip), vehicle: water): 92 % of control
T/C [6]: 100 % of control
T/C (dose: 200.0 mg/kg/injection, schedule: Q01DX001 (ip), vehicle: water): 101 % of control
T/C (dose: 400.0 mg/kg/injection, schedule: Q01DX001 (ip), vehicle: water): 95 % of control

Cc1ccc(C)c(S(=O)(=O)OCC2CO2)c1 (centres undefined)
T/C [6]: 104 % of control
T/C [7]: 101 % of control
T/C [8]: 101 % of control

O=c1cc(-c2cccs2)ss1
T/C [9]: 89 % of control
T/C [6]: 102 % of control
T/C [10]: 105 % of control
T/C [7]: 94 % of control
T/C [11]: 86 % of control
T/C [8]: 104 % of control

CC(C)CCCC(C)C1CCC2C3CC(=O)OC4CC(Br)CCC4(C)C3CCC12C (centres undefined)
T/C [6]: 101 % of control
T/C [7]: 101 % of control
T/C [8]: 102 % of control

Cc1cccn(C)c1=O
T/C [12]: 95 % of control
T/C [13]: 101 % of control
T/C [14]: 96 % of control

CC(Cl)CN(CC(C)Cl)C(=O)Oc1ccccc1[N+](=O)[O-] (centres undefined)
T/C [15]: 93 % of control
T/C (dose: 200.0 mg/kg/injection, schedule: Q01DX009 (ip), vehicle: Klucel (hydroxypropylcellulose) (HPC)): 104 % of control
T/C (dose: 400.0 mg/kg/injection, schedule: Q01DX009 (ip), vehicle: Klucel (hydroxypropylcellulose) (HPC)): 93 % of control

N=c1ccccn1C(=O)C1=Cc2ccccc2OC1
T/C [16]: 103 % of control
T/C (dose: 200.0 mg/kg/injection, schedule: Q01DX001 (ip), vehicle: saline with Tween-80): 100 % of control
T/C (dose: 400.0 mg/kg/injection, schedule: Q01DX001 (ip), vehicle: saline with Tween-80): 96 % of control

COc1ccc(C(O)(CNCc2ccccc2)c2ccccc2)cc1 (centres undefined)
T/C [16]: 97 % of control

Cc1ccc(C(=O)OCC2OC(n3cnc4c(=S)nc(N)[nH]c43)C(OC(=O)c3ccc(C)cc3)C2OC(=O)c2ccc(C)cc2)cc1 (centres undefined)
T/C [12]: 95 % of control
T/C [17]: 106 % of control
T/C [13]: 101 % of control
T/C [18]: 112 % of control
T/C (dose: 400.0 mg/kg/injection, schedule: Q01DX001 (ip), vehicle: carboxymethylcellulose (CMC)): 111 % of control
T/C [14]: 106 % of control
T/C [19]: 116 % of control
T/C (dose: 600.0 mg/kg/injection, schedule: Q01DX001 (ip), vehicle: carboxymethylcellulose (CMC)): 105 % of control
T/C (dose: 800.0 mg/kg/injection, schedule: Q01DX001 (ip), vehicle: carboxymethylcellulose (CMC)): 119 % of control
T/C (dose: 800.0 mg/kg/injection, schedule: Q01DX009 (ip), vehicle: saline): 172 % of control
T/C (dose: 1000.0 mg/kg/injection, schedule: Q01DX001 (ip), vehicle: carboxymethylcellulose (CMC)): 116 % of control

Cc1ccc(S(=O)(=O)N/N=C/Cc2ccccc2)cc1
T/C (dose: 100.0 mg/kg/injection, schedule: Q04DX002 (ip), vehicle: gum acacia): 100 % of control
T/C (dose: 200.0 mg/kg/injection, schedule: Q04DX002 (ip), vehicle: gum acacia): 100 % of control
T/C (dose: 400.0 mg/kg/injection, schedule: Q04DX002 (ip), vehicle: gum acacia): 100 % of control

CC(C)(C)c1nc2ccc([N+](=O)[O-])cc2[nH]1
T/C (dose: 38.0 mg/kg/injection, schedule: Q01DX009 (ip), vehicle: other): 104 % of control
T/C (dose: 75.0 mg/kg/injection, schedule: Q01DX001 (ip), vehicle: other): 92 % of control
T/C (dose: 75.0 mg/kg/injection, schedule: Q04DX003 (ip), vehicle: other): 92 % of control
T/C (dose: 150.0 mg/kg/injection, schedule: Q01DX001 (ip), vehicle: other): 91 % of control
T/C (dose: 150.0 mg/kg/injection, schedule: Q04DX003 (ip), vehicle: other): 92 % of control
T/C (dose: 300.0 mg/kg/injection, schedule: Q01DX001 (ip), vehicle: other): 97 % of control

C=C(Cl)CSCC
T/C [6]: 111 % of control

N#Cc1cscc1C#N
T/C [1]: 96 % of control
T/C [2]: 92 % of control
T/C (dose: 50.0 mg/kg/injection, schedule: Q01DX009 (ip), vehicle: Klucel (hydroxypropylcellulose) (HPC)): 97 % of control
T/C [15]: 88 % of control
T/C (dose: 100.0 mg/kg/injection, schedule: Q04DX003 (ip), vehicle: Klucel (hydroxypropylcellulose) (HPC)): 111 % of control
T/C (dose: 200.0 mg/kg/injection, schedule: Q04DX003 (ip), vehicle: Klucel (hydroxypropylcellulose) (HPC)): 100 % of control
T/C (dose: 400.0 mg/kg/injection, schedule: Q04DX003 (ip), vehicle: Klucel (hydroxypropylcellulose) (HPC)): 104 % of control

COc1ccc(S(=O)(=O)Nc2cc(Cl)ccc2Cl)cc1
T/C [9]: 92 % of control
T/C [10]: 103 % of control
T/C [11]: 95 % of control

O=C(O)C(CSC(c1ccccc1)c1ccccc1)N1C(=O)c2ccccc2C1=O (centres undefined)
T/C (dose: 75.0 mg/kg/injection, schedule: Q01DX009 (ip), vehicle: Klucel (hydroxypropylcellulose) (HPC)): 102 % of control
T/C (dose: 75.0 mg/kg/injection, schedule: Q04DX003 (ip), vehicle: Klucel (hydroxypropylcellulose) (HPC)): 97 % of control
T/C (dose: 150.0 mg/kg/injection, schedule: Q01DX009 (ip), vehicle: Klucel (hydroxypropylcellulose) (HPC)): 98 % of control
T/C (dose: 150.0 mg/kg/injection, schedule: Q04DX003 (ip), vehicle: Klucel (hydroxypropylcellulose) (HPC)): 109 % of control
T/C (dose: 300.0 mg/kg/injection, schedule: Q01DX009 (ip), vehicle: Klucel (hydroxypropylcellulose) (HPC)): 104 % of control
T/C (dose: 300.0 mg/kg/injection, schedule: Q04DX003 (ip), vehicle: Klucel (hydroxypropylcellulose) (HPC)): 94 % of control

Oc1cc2c(cc1O)C1c3ccc(O)c(O)c3OCC1(O)C2 (centres undefined)
T/C [17]: 102 % of control
T/C [3]: 110 % of control
T/C [18]: 104 % of control
T/C [4]: 104 % of control
T/C [19]: 101 % of control
T/C [5]: 102 % of control
